Experimental data reported in publication PMC8765781, “A platform of assays for the discovery of anti-Zika small-molecules with activity in a 3D-bioprinted outer-blood-retina model” (PLoS ONE, 2022).
Where two headings read alike, the source gives them in different places.

Assays:
[1] = system: ZIKV-RLuc (Cambodian strain FSS13025); test: microbe, parasite or virus in culture; format: cell-based, Zika virus; conditions: for AC50: Zika virus, Vero
[2] = read-out: Log AC50 (M) (converted)

O=c1cc(-c2ccc(O)c(O)c2)oc2c(C3O[C@H](CO)[C@H](O)[C@H](O)[C@H]3O)c(O)cc(O)c12 (stereo partly shown) [NCGC00168934-02]
AC50 (Vero cells): 18.5 µM
Log AC50 (M) (Vero cells): -4.7327 M
CC-v2 (curve class classification v2 of the dose response curve) [1]: -2.1
Efficacy (difference between neutral response and maximum compound response) [1]: -106.691
Max Resp (difference between neutral response and compound response for highest compound concentration) [1]: -100.564
AC50 [1]: 1.85e-05 M
AC50 [1, 2]: 1.85e-05 M

C[C@H]1O[C@@H](O[C@H]2[C@@H](O)C[C@H](O[C@H]3[C@@H](O)C[C@H](O[C@H]4CC[C@@]5(C)[C@H](CC[C@@H]6[C@@H]5C[C@@H](O)[C@]5(C)[C@@H](C7=CC(=O)OC7)CC[C@]65O)C4)O[C@@H]3C)O[C@@H]2C)C[C@H](O)[C@@H]1O [NCGC00090797-01]
AC50 (Vero cells): 0.465 µM
Log AC50 (M) (Vero cells): -6.3327 M
CC-v2 (curve class classification v2 of the dose response curve) [1]: -1.1
Efficacy (difference between neutral response and maximum compound response) [1]: -107.599
Max Resp (difference between neutral response and compound response for highest compound concentration) [1]: -98.918
AC50 [1]: 4.65e-07 M
AC50 [1, 2]: 4.65e-07 M

C[S+]([O-])c1ccc(-c2nc(-c3ccc(F)cc3)c(-c3ccncc3)[nH]2)cc1 (stereo not shown) [NCGC00025035-05]
AC50 (Vero cells): 47.9 µM
Log AC50 (M) (Vero cells): -4.3199 M
CC-v2 (curve class classification v2 of the dose response curve) [1]: -2.1
Efficacy (difference between neutral response and maximum compound response) [1]: -107.599
Max Resp (difference between neutral response and compound response for highest compound concentration) [1]: -87.79
AC50 [1]: 4.79e-05 M
AC50 [1, 2]: 4.79e-05 M

CCN(CC)CCOc1ccc(C(=C(Cl)c2ccccc2)c2ccccc2)cc1 [NCGC00164385-05]
AC50 (Vero cells): 23.3 µM
Log AC50 (M) (Vero cells): -4.6327 M
CC-v2 (curve class classification v2 of the dose response curve) [1]: -2.1
Efficacy (difference between neutral response and maximum compound response) [1]: -102.171
Max Resp (difference between neutral response and compound response for highest compound concentration) [1]: -98.776
AC50 [1]: 2.33e-05 M
AC50 [1, 2]: 2.33e-05 M

CN(C)Cc1c(C(=O)NCCOc2ccc(C(=O)NO)cc2)oc2ccccc12 [NCGC00346486-01]
AC50 (Vero cells): 9.28 µM
Log AC50 (M) (Vero cells): -5.0327 M
CC-v2 (curve class classification v2 of the dose response curve) [1]: -1.1
Efficacy (difference between neutral response and maximum compound response) [1]: -96.645
Max Resp (difference between neutral response and compound response for highest compound concentration) [1]: -98.785
AC50 [1]: 9.28e-06 M
AC50 [1, 2]: 9.27e-06 M

CS[C@H]1SC[C@@H]2C(=O)N(C)[C@H](C(C)C)C(=O)OC[C@H](NC(=O)c3cnc4ccccc4n3)C(=O)N[C@H](C)C(=O)N(C)[C@H]1C(=O)N(C)[C@H](C(C)C)C(=O)OC[C@H](NC(=O)c1cnc3ccccc3n1)C(=O)N[C@H](C)C(=O)N2C [NCGC00163548-01]
AC50 (Vero cells): 1.82 µM
Log AC50 (M) (Vero cells): -5.7408 M
CC-v2 (curve class classification v2 of the dose response curve) [1]: -1.1
Efficacy (difference between neutral response and maximum compound response) [1]: -94.296
Max Resp (difference between neutral response and compound response for highest compound concentration) [1]: -94.115
AC50 [1]: 1.82e-06 M
AC50 [1, 2]: 1.82e-06 M

O=C(N[C@@H](c1ccccc1)[C@@H]1CCCCN1)c1cccc(C(F)(F)F)c1Cl [NCGC00247954-02]
AC50 (Vero cells): 42.7 µM
Log AC50 (M) (Vero cells): -4.3699 M
CC-v2 (curve class classification v2 of the dose response curve) [1]: -2.1
Efficacy (difference between neutral response and maximum compound response) [1]: -87.335
Max Resp (difference between neutral response and compound response for highest compound concentration) [1]: -99.352
AC50 [1]: 4.27e-05 M
AC50 [1, 2]: 4.27e-05 M

C[C@@H]1C[C@H]2[C@@H]3CCC4=CC(=O)C=C[C@]4(C)[C@@]3(Cl)[C@@H](O)C[C@]2(C)[C@@]1(OC(=O)c1ccco1)C(=O)CCl [NCGC00179578-03]
AC50 (Vero cells): 23.3 µM
Log AC50 (M) (Vero cells): -4.6327 M
CC-v2 (curve class classification v2 of the dose response curve) [1]: -2.1
Efficacy (difference between neutral response and maximum compound response) [1]: -100.838
Max Resp (difference between neutral response and compound response for highest compound concentration) [1]: -97.726
AC50 [1]: 2.33e-05 M
AC50 [1, 2]: 2.33e-05 M

C/C=C(/C)C(=O)O[C@H]1C(C)=C2[C@H]([C@@H]1OC(=O)CCCCCCC)[C@@](C)(OC(C)=O)C[C@H](OC(=O)CCC)[C@@]1(O)[C@H]2OC(=O)[C@@]1(C)O [NCGC00261947-01]
AC50 (Vero cells): 3.29 µM
Log AC50 (M) (Vero cells): -5.4827 M
CC-v2 (curve class classification v2 of the dose response curve) [1]: -1.2
Efficacy (difference between neutral response and maximum compound response) [1]: -69.727
Max Resp (difference between neutral response and compound response for highest compound concentration) [1]: -98.941
AC50 [1]: 3.29e-06 M
AC50 [1, 2]: 3.29e-06 M

O=C1Nc2ccc(Cl)cc2[C@@](C#CC2CC2)(C(F)(F)F)O1 [NCGC00159337-04]
AC50 (Vero cells): 16.5 µM
Log AC50 (M) (Vero cells): -4.7827 M
CC-v2 (curve class classification v2 of the dose response curve) [1]: -2.1
Efficacy (difference between neutral response and maximum compound response) [1]: -93.261
Max Resp (difference between neutral response and compound response for highest compound concentration) [1]: -95.737
AC50 [1]: 1.65e-05 M
AC50 [1, 2]: 1.65e-05 M

CC(=O)Nc1ccc([C@H](C)C(=O)Nc2ncc(C(C)C)s2)cc1 [NCGC00263191-01]
AC50 (Vero cells): 2.33 µM
Log AC50 (M) (Vero cells): -5.6327 M
CC-v2 (curve class classification v2 of the dose response curve) [1]: -1.1
Efficacy (difference between neutral response and maximum compound response) [1]: -109.113
Max Resp (difference between neutral response and compound response for highest compound concentration) [1]: -98.511
AC50 [1]: 2.33e-06 M
AC50 [1, 2]: 2.33e-06 M

CC(C)=CCCC(C)(O)CCCC(C)(O)CCCC(C)(O)CCCC(C)(O)CCCC(C)(O)CCCC(C)(O)C(O)CC/C(C)=C/CC/C(C)=C/CO[C@@H]1O[C@H](CO)[C@@H](O)[C@H](O)[C@H]1O (stereo partly shown) [NCGC00347748-02]
AC50 (Vero cells): 3.62 µM
Log AC50 (M) (Vero cells): -5.4408 M
CC-v2 (curve class classification v2 of the dose response curve) [1]: -1.1
Efficacy (difference between neutral response and maximum compound response) [1]: -100.94
Max Resp (difference between neutral response and compound response for highest compound concentration) [1]: -99.117
AC50 [1]: 3.62e-06 M
AC50 [1, 2]: 3.62e-06 M

CCN1CCN(CC(=O)Nc2ccc(-c3cccc4c(=O)cc(N5CCOCC5)oc34)c3sc4ccccc4c23)CC1 [NCGC00250387-03]
AC50 (Vero cells): 23.3 µM
Log AC50 (M) (Vero cells): -4.6327 M
CC-v2 (curve class classification v2 of the dose response curve) [1]: -2.4
Efficacy (difference between neutral response and maximum compound response) [1]: -68.382
Max Resp (difference between neutral response and compound response for highest compound concentration) [1]: -59.211
AC50 [1]: 2.33e-05 M
AC50 [1, 2]: 2.33e-05 M
